Common to all, as to format: cell-based
For experiment [1], the target named is von Hippel-Lindau disease tumor suppressor/Bifunctional arginine demethylase and lysyl-hydroxylase JMJD6 (Homo sapiens) (UniProt P40337+Q6NYC1). The experiment in a line: Protac activity at VHL/JMJD6 in human MCF7 cells assessed as degradation by measuring fold change in remaining JMJD6 level at 10 uM incubated for 24 hrs by immunoblotting analysis (reference value: […]).

Experiment [2] addresses T1, von Hippel-Lindau disease tumor suppressor/Bromodomain-containing protein 4 (Homo sapiens) (UniProt O60885+P40337). Kind of experiment: PROTAC activity at VHL/His-tagged BDR4 ET domain (1 to 470 residues) (unknown origin) transfected in MCF7 cells assessed as degradation by measuring fold change in remaining BRD4 level at 10 uM incubated for 24 hrs by immunoblotting analysis (reference value: […]). In general terms: In western blotting, separated proteins are transferred to a membrane and probed.

Experiment [3] has as its target T1, von Hippel-Lindau disease tumor suppressor/Bromodomain-containing protein 4 (Homo sapiens). Kind of experiment: PROTAC activity at VHL/His-tagged BDR4 ET domain (471 to 730 residues) (unknown origin) transfected in MCF7 cells assessed as degradation by measuring fold change in remaining BRD4 level at 20 uM incubated for 24 hrs by immunoblotting analysis (reference value: […]).

For experiment [4] the target is unchanged. The experiment in a line: PROTAC activity at VHL/His-tagged BDR4 […] (unknown origin) transfected in MCF7 cells assessed as degradation by measuring fold change in remaining BRD4 level at 10 uM incubated for 12 hrs by immunoblotting analysis (reference value: […]).
The target is the same in experiment [5]. Kind of experiment: PROTAC activity at VHL/BDR4 ET domain in human MCF7 cells assessed as degradation by measuring fold change in remaining BRD4 level at 2.5 uM incubated for 24 hrs by immunoblotting analysis (reference value: […]).
The target is the same in experiment [6]. Kind of experiment: PROTAC activity at VHL/His-tagged BDR4 ET domain (471 to 730 residues) (unknown origin) transfected in MCF7 cells assessed as degradation by measuring fold change in remaining BRD4 level at 10 uM incubated for 12 hrs by immunoblotting analysis (reference value: […]).
Experiment [7] has the same target. The experiment in a line: PROTAC activity at VHL/His-tagged BDR4 […] (unknown origin) transfected in MCF7 cells assessed as degradation by measuring fold change in remaining BRD4 level at 5 uM incubated for 24 hrs by immunoblotting analysis (reference value: […]).
Experiment [8] shares this target. The experiment in a line: PROTAC activity at VHL/His-tagged BDR4 ET domain (601 to 683 residues) (unknown origin) transfected in MCF7 cells assessed as degradation by measuring fold change in remaining BRD4 level at 10 uM incubated for 24 hrs by immunoblotting analysis (reference value: […]).
Experiment [9] relates to MCF7. The experiment in a line: Inhibition of His-tagged BRD4 ET domain to Flag-tagged JMJD6 (unknown origin) protein-protein interaction in human MCF7 cells assessed as fold decrease in His-tagged BRD4 ET level at 10 uM incubated for 12 hrs by immunoblotting assay (reference value: […]).
Experiment [10] deals with MCF7. Kind of experiment: Inhibition of His-tagged BRD4 ET domain to Flag-tagged JMJD6 (unknown origin) protein-protein interaction in human MCF7 cells assessed as fold decrease in Flag-tagged JMJD6 level at 10 uM incubated for 12 hrs by immunoblotting assay (reference value: […]).

Square brackets hold non-standard residues; d marks the D form. Peptide text beside a SMILES is read from it. Hyp = O=C(O)[C@@H]1C[C@@H](O)CN1; Ahx = NCCCCCC(=O)O

Consider `CC[C@H](C)[C@H](NC(=O)[C@H](Cc1ccc(O)cc1)NC(=O)[C@@H]1C[C@@H](O)CN1C(=O)[C@H](C)NC(=O)[C@@H](NC(=O)CCCCCNC(=O)[C@H](CCC(=O)O)NC(=O)CNC(=O)[C@H](CS)NC(=O)[C@H](CCCCN)NC(=O)[C@H](Cc1ccccc1)NC(=O)[C@H](CCCCN)NC(=O)[C@H](CCC(N)=O)NC(=O)[C@H](CC(N)=O)NC(=O)[C@H](CCCNC(=N)N)NC(=O)[C@H](CCCNC(=N)N)NC(=O)[C@H](CCCNC(=N)N)NC(=O)[C@H](CCCNC(=N)N)NC(=O)[C@H](CCC(N)=O)NC(=O)[C@H](CCCNC(=N)N)NC(=O)[C@H](CCCNC(=N)N)NC(=O)[C@H](CCCCN)NC(=O)[C@H](CCCCN)NC(=O)[C@H](CCCNC(=N)N)NC(=O)CNC(=O)[C@@H](N)Cc1ccc(O)cc1)[C@@H](C)CC)C(=O)O` (H-YGRKKRRQRRRRNQKFKCGE[Ahx]IA[Hyp]YI-OH), for which the fold change (FC) in [1] is 0.59; in [2], 1.11; in [3], 0.6; in [4], 0.99; in experiment [5], 0.92; in experiment [6] it was 0.9. Also, the values for the fold change (FC) in [7] and in experiment [8] were 1.01 and 0.47, respectively.
Consider H-YGRKKRRQRRRRNQKFKCGE-OH, for which the fold change (FC) in experiment [9] was found to be 0.49; in [10] it was 0.93.

Values taken from ChEMBL document CHEMBL5543129, “Peptide Inhibitor Targeting the Extraterminal Domain in BRD4 Potently Suppresses Breast Cancer Both In Vitro and In Vivo” (J Med Chem, 2024).
